Assay results: patent US20140100156A1 (SANOFI, priority 2012, published 2014)

How the values were obtained:
Type in all cases: in vivo
female NMRI-mice = experiment: Gastric emptying and intestinal passage in mice
Description: Female NMRI-mice of a body weight between 20 and 30 g were used. Mice were adapted to housing conditions for at least one week.
Mice were overnight fasted, while water remained available all the time. On the study day, mice were weighed, single-caged and allowed access to 500 mg of feed for 30 min, while water was removed. At the end of the 30 min feeding period, remaining feed was removed and weighed. 60 min later, a coloured, non-caloric bolus was instilled via gavage into the stomach. The test compound/reference compound or its vehicle in the control group was administered subcutaneously, to reach Cmax when coloured bolus was administered. After another 30 min, the animals were sacrificed and the stomach and the small intestine prepared. The filled stomach was weighed, emptied, carefully cleaned and dried and reweighed. The calculated stomach content indicated the degree of gastric emptying. The small intestine was straightened without force and measured in length. Then the distance from the gastric beginning of the gut to the tip of the farthest travelled intestinal content bolus was measured. The intestinal passage was given as relation in percent of the latter distance and the total length of the small intestine.
Statistical analyses were performed with Everstat 6.0 by 1-way-ANOVA, followed by Dunnetts or Newman-Keuls as post-hoc test, respectively. Differences were considered statistically significant at the p<0.05 level. As post hoc test Dunnet's Test was applied to compare versus vehicle control, only. Newman-Keul's Test was applied for all pairwise comparisons (i.e. versus vehicle and reference groups).
30 min later, the assessment of stomach contents and intestinal passage was done (FIG. 1a, b).
In another study, female NMRI-mice, weighing on average 25-30 g, were administered subcutaneously 0.02 and 0.002 mg/kg of SEQ ID NO: 97 or phosphate buffered saline (vehicle control), 30 min prior to the administration of the coloured bolus. 30 min later, the assessment of stomach contents and intestinal passage was done (FIG. 1c, d).

[1] = Subchronic effect on body weight and body fat in female DIO C57BL/6NCrl mice; conditions: 4 weeks, mean
Description: Female C57BL/6NCrl mice were housed in groups in a specific pathogen-free barrier facility on a 12-h light/dark cycle with free access to water and high-fat diet. After 10 months on high-fat diet, mice were stratified to treatment groups (n=8), so that each group had similar mean body weight.
2) Subchronic effect on body weight: all animals were treated once daily s.c. in the morning, at the beginning of the light phase (12 h lights on) with either vehicle or exendin-4 derivatives at the abovementioned doses for 4 weeks. Body weight was recorded daily. On days 6 and 28, total fat mass was measured by nuclear magnetic resonance (NMR) using a Bruker minispec (Ettlingen, Germany).
Statistical analyses were performed with Everstat 6.0 by repeated measures two-way ANOVA and Dunnetts post-hoc analyses (glucose profile) and 1-way-ANOVA, followed by Dunnetts post-hoc test (body weight, body fat). Differences versus vehicle-treated DIO control mice were considered statistically significant at the p<0.05 level.
Female obese C57BL/6NCrl mice were treated for 4 weeks once daily subcutaneously in the morning, at the beginning of the light phase (12 h lights on) with 3, 10 or 100 μg/kg SEQ ID NO: 97 or vehicle. Body weight was recorded daily, and body fat content was determined before the start of treatment and after 4 weeks of treatment.

[2] = tested on: female leptin-receptor deficient diabetic db/db mice; experiment: Subchronic effect on blood glucose and HbA1c in female db/db mice
From the text: Female BKS.Cg-m+/+Leprdb/J (db/db) and BKS.Cg-m+/+Leprdb/+ (lean control) mice were obtained from Charles River Laboratories, Germany, at an age of 9-10 weeks. The animals were housed in groups in a specific pathogen-free barrier facility on a 12-h light/dark cycle with free access to water and rodent-standard chow. After 1 week of acclimatization, blood samples were drawn from the tail without anaesthesia and blood glucose (method: d-glucose hexokinase, hemolysate, AU640 Beckman Coulter) and HbA1c level (method: hemolysate, Cobas6000 c501, Roche Diagnostics, Germany) were determined. […]
2) Subchronic effect on blood glucose and HbA1c: all animals were treated once daily s.c. with either vehicle or exendin-4 derivatives at the abovementioned doses for 4 weeks. At the end of the study, blood samples (tail, no anaesthesia) were analyzed for glucose and HbA1c. […]
Female diabetic mice were treated for 4 weeks once daily subcutaneously with 3, 10 or 100 μg/kg SEQ ID NO: 97 or vehicle. Blood glucose and HbA1c were determined before start of treatment and at the end of the study after 4 weeks of treatment.
Female diabetic mice were treated for 4 weeks subcutaneously with 50 μg/kg SEQ ID NO: 24 or vehicle twice daily. Blood glucose and HbA1c were determined before start of treatment and at the end of the study after 4 weeks of treatment.

[3] = 0.002 mg/kg s.c., versus PBS-control (second study)
[4] = 0.02 mg/kg s.c., study with reference compound Liraglutide, versus vehicle
[5] = 0.02 mg/kg s.c., versus PBS-control (second study)

Substance: SEQ ID NO: 97: exendin-4 derivative, K(γE-x53) in position 14 (HXQGTFTSDLSKQKDSRRAQDFIEWLKNGGPSSGAPPPS; K14 side chain γE-x53; Exendin-4-analogue)
- gastric content increased by (female NMRI-mice; [3]): 47%
- intestinal passage reduced by (female NMRI-mice; [3]): 63%
- gastric content increased by (female NMRI-mice; [4]): 90%
- intestinal passage reduced by (female NMRI-mice; [4]): 67%
- gastric content increased by (female NMRI-mice; [5]): 37%
- intestinal passage reduced by (female NMRI-mice; [5]): 43%
- Body fat change ([1]; 3 μg/kg s.c. once daily): -0.5 g
- Overall weight change ([1]; 3 μg/kg s.c. once daily): -0.9 g
- Body fat change ([1]; 10 μg/kg s.c. once daily): -2.5 g
- Overall weight change ([1]; 10 μg/kg s.c. once daily): -3.0 g
- Body fat change ([1]; 100 μg/kg s.c. once daily): -2.4 g
- Overall weight change ([1]; 100 μg/kg s.c. once daily): -2.3 g
- blood glucose level versus db control mice at the end of the study ([2]; 3, 10 or 100 μg/kg s.c. once daily, 4 weeks (all dose groups)): significant lower blood glucose level
- HbA1c level versus db control mice at the end of the study ([2]; high dose (100 μg/kg s.c. once daily), 4 weeks): significant lower HbA1c level
